Tested on: S. pneumoniae (strain #0100993)
Assay: Sub-lethal influenza infection followed by S. pneumoniae co-infection, survival (LD50) after PDE 4 inhibitor pretreatment
Type: in vivo, mice

COc1ccc([C@]2(C#N)CC[C@@H](C(=O)O)CC2)cc1OC1CCCC1 [Ariflo, cis-4-cyano-4-[3-(cyclopentyloxy)-4-methoxyphenyl]cyclohexane-1-carboxylic acid]
LD50 of S. pneumoniae in treated mice (10 mg/kg orally once daily on days 0 to 9, S. pneumoniae challenge IN on day 9, control diluent LD50 72): 252 cfu/mouse
LD50 of S. pneumoniae in treated mice (30 mg/kg orally once daily on days 0 to 9, S. pneumoniae challenge IN on day 9, control diluent LD50 72): 221 cfu/mouse
